{"source": "the supplement of paper PMC10307832", "assay_in_all_cases": "relative viability (nuclei count vs DMSO), 5 days (fraction); higher = more cells survive", "key": {"[1]": {"test_system": "HCC-827", "in_short": "(§1)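 Lung cancer cell lines, seeded in 1536-well plates, were treated the following day by pin tool with a single drug or with five library-drug doses (not always all listed) in √10 steps on top of a fixed anchor-drug dose. Cells were fixed and nuclei stained in one step after 5 days, and nuclei were counted. Relative viability is the nuclei count for treated wells divided by that for vehicle wells, reported as medians of duplicate plates.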"}, "[2]": {"test_system": "HCC-78", "in_short": "as §1"}, "[3]": {"test_system": "HCC-366", "in_short": "as §1"}, "[4]": {"test_system": "SK-MES-1", "in_short": "as §1"}, "[5]": {"test_system": "NCI-H1437", "in_short": "as §1"}, "[6]": {"test_system": "SK-LU-1", "in_short": "as §1"}, "[7]": {"test_system": "NCI-H727", "in_short": "as §1"}, "[8]": {"test_system": "COR-L 105", "in_short": "as §1"}, "[9]": {"test_system": "UMC-11", "in_short": "as §1"}, "[10]": {"test_system": "NCI-H1944", "in_short": "as §1"}, "[11]": {"test_system": "NCI-H2085", "in_short": "as §1"}, "[12]": {"test_system": "EPLC-272H", "in_short": "as §1"}, "[13]": {"test_system": "NCI-H2023", "in_short": "as §1"}, "[14]": {"test_system": "NCI-H358", "in_short": "as §1"}, "[15]": {"test_system": "HCC-15", "in_short": "as §1"}, "[16]": {"test_system": "COR-L23", "in_short": "as §1"}, "[17]": {"test_system": "NCI-H2342", "in_short": "as §1"}, "[18]": {"test_system": "NCI-H1395", "in_short": "as §1"}, "[19]": {"test_system": "NCI-H661", "in_short": "as §1"}, "[20]": {"test_system": "HCC-44", "in_short": "as §1"}, "[21]": {"test_system": "LCLC-103H", "in_short": "as §1"}, "[22]": {"test_system": "NCI-H2405", "in_short": "as §1"}, "[23]": {"test_system": "HARA", "in_short": "as §1"}, "[24]": {"test_system": "NCI-H1975", "in_short": "as §1"}}}
{"smiles": "CCCCCCCCCCCC1=C(O)C(=O)C=C(O)C1=O", "note": "[Embelin] + O=C(CCCCCCC(=O)Nc1ccccc1)NO [Vorinostat] (partner 1 µM)", "values": [{"measurement": "relative viability", "setting": "[1]; first compound 0.08 µM", "result": 0.806}, {"measurement": "relative viability", "setting": "[1]; first compound 0.8 µM", "result": 0.915}, {"measurement": "relative viability", "setting": "[1]; first compound 2.53 µM", "result": 0.966}, {"measurement": "relative viability", "setting": "[1]; first compound 8 µM", "result": 0.917}, {"measurement": "relative viability", "setting": "[2]; first compound 0.08 µM", "result": 0.467}, {"measurement": "relative viability", "setting": "[2]; first compound 0.8 µM", "result": 0.547}, {"measurement": "relative viability", "setting": "[2]; first compound 2.53 µM", "result": 0.553}, {"measurement": "relative viability", "setting": "[2]; first compound 8 µM", "result": 0.401}, {"measurement": "relative viability", "setting": "[3]; first compound 0.08 µM", "result": 0.409}, {"measurement": "relative viability", "setting": "[3]; first compound 0.8 µM", "result": 0.412}, {"measurement": "relative viability", "setting": "[3]; first compound 2.53 µM", "result": 0.364}, {"measurement": "relative viability", "setting": "[3]; first compound 8 µM", "result": 0.268}, {"measurement": "relative viability", "setting": "[4]; first compound 0.08 µM", "result": 1.1}, {"measurement": "relative viability", "setting": "[4]; first compound 0.8 µM", "result": 1.2}, {"measurement": "relative viability", "setting": "[4]; first compound 2.53 µM", "result": 1.1}, {"measurement": "relative viability", "setting": "[4]; first compound 8 µM", "result": 0.898}, {"measurement": "relative viability", "setting": "[5]; first compound 0.08 µM", "result": 0.83}, {"measurement": "relative viability", "setting": "[5]; first compound 0.8 µM", "result": 0.943}, {"measurement": "relative viability", "setting": "[5]; first compound 2.53 µM", "result": 0.853}, {"measurement": "relative viability", "setting": "[5]; first compound 8 µM", "result": 0.392}, {"measurement": "relative viability", "setting": "[6]; first compound 0.08 µM", "result": 0.892}, {"measurement": "relative viability", "setting": "[6]; first compound 0.8 µM", "result": 0.954}, {"measurement": "relative viability", "setting": "[6]; first compound 2.53 µM", "result": 0.75}, {"measurement": "relative viability", "setting": "[6]; first compound 8 µM", "result": 0.518}, {"measurement": "relative viability", "setting": "[7]; first compound 0.08 µM", "result": 1.31}, {"measurement": "relative viability", "setting": "[7]; first compound 0.8 µM", "result": 1.11}, {"measurement": "relative viability", "setting": "[7]; first compound 2.53 µM", "result": 1.32}, {"measurement": "relative viability", "setting": "[7]; first compound 8 µM", "result": 1.22}, {"measurement": "relative viability", "setting": "[8]; first compound 0.08 µM", "result": 0.867}, {"measurement": "relative viability", "setting": "[8]; first compound 0.8 µM", "result": 0.906}, {"measurement": "relative viability", "setting": "[8]; first compound 2.53 µM", "result": 0.904}, {"measurement": "relative viability", "setting": "[8]; first compound 8 µM", "result": 0.787}, {"measurement": "relative viability", "setting": "[9]; first compound 0.08 µM", "result": 0.39}, {"measurement": "relative viability", "setting": "[9]; first compound 0.8 µM", "result": 0.407}, {"measurement": "relative viability", "setting": "[9]; first compound 2.53 µM", "result": 0.372}, {"measurement": "relative viability", "setting": "[9]; first compound 8 µM", "result": 0.393}, {"measurement": "relative viability", "setting": "[10]; first compound 0.08 µM", "result": 0.577}, {"measurement": "relative viability", "setting": "[10]; first compound 0.8 µM", "result": 0.643}, {"measurement": "relative viability", "setting": "[10]; first compound 2.53 µM", "result": 0.656}, {"measurement": "relative viability", "setting": "[10]; first compound 8 µM", "result": 0.589}, {"measurement": "relative viability", "setting": "[11]; first compound 0.08 µM", "result": 0.742}, {"measurement": "relative viability", "setting": "[11]; first compound 0.8 µM", "result": 0.932}, {"measurement": "relative viability", "setting": "[11]; first compound 2.53 µM", "result": 0.807}, {"measurement": "relative viability", "setting": "[11]; first compound 8 µM", "result": 0.755}, {"measurement": "relative viability", "setting": "[12]; first compound 0.08 µM", "result": 0.372}, {"measurement": "relative viability", "setting": "[12]; first compound 0.8 µM", "result": 0.62}, {"measurement": "relative viability", "setting": "[12]; first compound 2.53 µM", "result": 0.471}, {"measurement": "relative viability", "setting": "[12]; first compound 8 µM", "result": 0.363}, {"measurement": "relative viability", "setting": "[13]; first compound 0.08 µM", "result": 0.622}, {"measurement": "relative viability", "setting": "[13]; first compound 0.8 µM", "result": 0.701}, {"measurement": "relative viability", "setting": "[13]; first compound 2.53 µM", "result": 0.565}, {"measurement": "relative viability", "setting": "[13]; first compound 8 µM", "result": 0.392}, {"measurement": "relative viability", "setting": "[14]; first compound 0.08 µM", "result": 0.699}, {"measurement": "relative viability", "setting": "[14]; first compound 0.8 µM", "result": 0.876}, {"measurement": "relative viability", "setting": "[14]; first compound 2.53 µM", "result": 0.707}, {"measurement": "relative viability", "setting": "[14]; first compound 8 µM", "result": 0.697}, {"measurement": "relative viability", "setting": "[15]; first compound 0.08 µM", "result": 0.906}, {"measurement": "relative viability", "setting": "[15]; first compound 0.8 µM", "result": 0.965}, {"measurement": "relative viability", "setting": "[15]; first compound 2.53 µM", "result": 0.908}, {"measurement": "relative viability", "setting": "[15]; first compound 8 µM", "result": 0.841}, {"measurement": "relative viability", "setting": "[16]; first compound 0.08 µM", "result": 0.404}, {"measurement": "relative viability", "setting": "[16]; first compound 0.8 µM", "result": 0.559}, {"measurement": "relative viability", "setting": "[16]; first compound 2.53 µM", "result": 0.386}, {"measurement": "relative viability", "setting": "[16]; first compound 8 µM", "result": 0.492}, {"measurement": "relative viability", "setting": "[17]; first compound 0.08 µM", "result": 0.766}, {"measurement": "relative viability", "setting": "[17]; first compound 0.8 µM", "result": 0.828}, {"measurement": "relative viability", "setting": "[17]; first compound 2.53 µM", "result": 0.887}, {"measurement": "relative viability", "setting": "[17]; first compound 8 µM", "result": 0.73}, {"measurement": "relative viability", "setting": "[18]; first compound 0.08 µM", "result": 0.615}, {"measurement": "relative viability", "setting": "[18]; first compound 0.8 µM", "result": 1}, {"measurement": "relative viability", "setting": "[18]; first compound 2.53 µM", "result": 0.48}, {"measurement": "relative viability", "setting": "[18]; first compound 8 µM", "result": 0.521}, {"measurement": "relative viability", "setting": "[19]; first compound 0.08 µM", "result": 0.787}, {"measurement": "relative viability", "setting": "[19]; first compound 0.8 µM", "result": 0.826}, {"measurement": "relative viability", "setting": "[19]; first compound 2.53 µM", "result": 0.788}, {"measurement": "relative viability", "setting": "[19]; first compound 8 µM", "result": 0.745}, {"measurement": "relative viability", "setting": "[20]; first compound 0.08 µM", "result": 1.09}, {"measurement": "relative viability", "setting": "[20]; first compound 0.8 µM", "result": 1.08}, {"measurement": "relative viability", "setting": "[20]; first compound 2.53 µM", "result": 1.12}, {"measurement": "relative viability", "setting": "[20]; first compound 8 µM", "result": 1.2}, {"measurement": "relative viability", "setting": "[21]; first compound 0.08 µM", "result": 0.851}, {"measurement": "relative viability", "setting": "[21]; first compound 0.8 µM", "result": 0.885}, {"measurement": "relative viability", "setting": "[21]; first compound 2.53 µM", "result": 0.75}, {"measurement": "relative viability", "setting": "[21]; first compound 8 µM", "result": 0.714}, {"measurement": "relative viability", "setting": "[22]; first compound 0.08 µM", "result": 1.01}, {"measurement": "relative viability", "setting": "[22]; first compound 0.8 µM", "result": 1.13}, {"measurement": "relative viability", "setting": "[22]; first compound 2.53 µM", "result": 0.95}, {"measurement": "relative viability", "setting": "[22]; first compound 8 µM", "result": 0.899}, {"measurement": "relative viability", "setting": "[23]; first compound 0.08 µM", "result": 0.559}, {"measurement": "relative viability", "setting": "[23]; first compound 0.8 µM", "result": 0.603}, {"measurement": "relative viability", "setting": "[23]; first compound 2.53 µM", "result": 0.545}, {"measurement": "relative viability", "setting": "[23]; first compound 8 µM", "result": 0.582}, {"measurement": "relative viability", "setting": "[24]; first compound 0.08 µM", "result": 0.717}, {"measurement": "relative viability", "setting": "[24]; first compound 0.8 µM", "result": 0.741}, {"measurement": "relative viability", "setting": "[24]; first compound 2.53 µM", "result": 0.75}, {"measurement": "relative viability", "setting": "[24]; first compound 8 µM", "result": 0.729}]}
